Source: patent publication US20090118471A1, “NOVEL COUMARIN DERIVATIVES” (The University of Tokyo, priority 2006, published 2009)
Counter-ions that a name gives are not always drawn.

Key:
[1] = Fluorescence intensity after reaction with N-acetylcysteine; type: physicochemical; conditions: 5 μmol/L; after reaction with one molecule of cysteine (NAC); sodium phosphate buffer pH 7.4, 0.5% DMSO
Protocol: (§1) Compound 8 at a concentration of 5 μmol/L was added with N-acetylcysteine (NAC), Ac-AECACRA-OH peptide, or Ac-AECAACRA-OH peptide (C-terminus is carboxyl group, N-terminus is acetyl group (Ac), and amino acids are represented by the single letter codes), and fluorescence intensity was measured. For the reaction mixture, a 100 mmol/L sodium phosphate buffer (pH=7.4, containing 0.5% dimethyl sulfoxide as a cosolvent) was used.

[2] = Fluorescence intensity after reaction with peptides containing two neighboring cysteine residues; type: physicochemical; conditions: 5 μmol/L; after reaction with peptides containing two neighboring cysteine residues in the same molecule; sodium phosphate buffer pH 7.4, 0.5% DMSO
Protocol: as §1

[3] = in 0.1 mol/L sulfuric acid solution; value taken as standard; cited from earlier work

Fluorescence [1] | Fluorescence [2] | SMILES | Fluorescence quantum yield (reference standard) [3]
substantially non-fluorescent | intensely fluorescent adducts | O=C(Cc1cc(=O)oc2cc(O)ccc12)NC1CC(N2C(=O)C=CC2=O)CC(N2C(=O)C=CC2=O)C1 (stereo not drawn) [Compound 8] | –
– | – | C=C[C@H]1C[N@@]2CC[C@H]1C[C@H]2[C@H](O)c1ccnc2ccc(OC)cc12 [quinine sulfate] | 0.577
